Data from patent US20250340572A1, “COMPOSITIONS USEFUL FOR MODULATING SPLICING” (Skyhawk Therapeutics, Inc., priority 2022, published 2025).
pIC50: −log10 of the molar value.

What was measured:
[1] = tested on: ATXN3 transcripts containing exon 4 (E4E5); experiment: ATXN3 quantitative splicing assay (qPCR, E4E5 primers/probe); type: cell-based; details: Homo sapiens; SK-N-MC cells, 24 h treatment, qPCR of exon 4 containing transcripts
Experimental: Human neuroblastoma SK-N-MC cells were plated in 384-well plates at 20,000 cells/well. Twenty-four hours after plating, cells were treated with compounds for 24 h at appropriate concentrations ranging from 30 μM to 0.6 nM (0.300 DMSO). Treated cells were lysed in 15 μL of lysis buffer, and cDNA was synthesized using the Fast Advanced Cells-to-Ct kit. Two μL of each cDNA was used in qPCR reactions to confirm the exon 4 skipped transcripts of ATXN3. A second set of primers/probe E4E5 was used to detect the transcripts containing exon 4. The third set of primers/probe E8E9 was used to detect total gene level of ATXN3. The qPCR reactions were prepared in 384-well plates in 10 μL volume, using TaqMan™ Fast Advanced Master Mix with primers and probes shown in the table below. Reactions were run in a Quant Studio 6 qPCR instrument with default settings.
The primers and probes are listed below in Table 5.

[2] = tested on: total ATXN3 protein; experiment: ATXN3 total protein assay (MSD); type: cell-based; details: Homo sapiens, SK-N-MC cells, 48 h incubation
Experimental: Human neuroblastoma SK-N-MC cells were seeded at 10,000 cells/well in 384 well plates one day prior to compound treatment. The concentrations of compounds were tested at appropriate doses ranging from 30 μM to 0.6 nM. After incubation for 48 hours, the cells were lysed with 25 μL of lysis buffer containing protease inhibitors, and total ATXN3 protein levels were assessed by Mesoscale Discovery (MSD) assay developed with one pair of anti-ATXN3 antibodies. The capture and detect antibodies were raised in mouse and rabbit respectively. Anti-rabbit MSD-ST antibody was used for secondary antibody.
ATXN3 recombinant protein was used for standards. The readouts were captured with 35 μL of MSD read buffer and multi-array 384-well high binding plates.

Compound | pIC50 [1] | pIC50 [2]
CC#Cc1c(C[C@H](C)N)sc2c(NCc3ccco3)snc12 [Compound 10, 7-[(S)-2-aminopropyl]-4-(furfurylamino)-8-(1-propynyl)-3,6-dithia-2-azabicyclo[3.3.0]octa-1,4,7-triene] | 6.30 to 7.00 | 6.30 to 7.00
COCC#Cc1c(C[C@H](C)N)sc2c(NCc3cccs3)snc12 [Compound 15, 7-[(S)-2-aminopropyl]-8-(3-methoxy-1-propynyl)-4-thenylamino-3,6-dithia-2-azabicyclo[3.3.0]octa-1,4,7-triene] | 4.40 to 5.00 | 4.40 to 5.00
C[C@H](N)Cc1sc2c(NCc3cccs3)snc2c1C#CCO [Compound 27, 3-{7-[(S)-2-aminopropyl]-4-thenylamino-3,6-dithia-2-azabicyclo[3.3.0]octa-1,4,7-trien-8-yl}-2-propyn-1-ol] | 5.30 to 6.30 | 5.30 to 6.30
C[C@H](N)Cc1sc2c(NCc3cccs3)snc2c1C#CCF [Compound 17, 7-[(S)-2-aminopropyl]-8-(3-fluoro-1-propynyl)-4-thenylamino-3,6-dithia-2-azabicyclo[3.3.0]octa-1,4,7-triene] | 6.30 to 7.00 | 5.30 to 6.30
CC(C)C#Cc1c(C[C@H](C)N)sc2c(NCc3cccs3)snc12 [Compound 4, 7-[(S)-2-aminopropyl]-8-(3-methyl-1-butynyl)-4-thenylamino-3,6-dithia-2-azabicyclo[3.3.0]octa-1,4,7-triene] | 5.00 to 5.30 | 5.00 to 5.30
C[C@H](N)Cc1sc2c(NCc3cccs3)snc2c1C#CC1CC1 [Compound 6, 7-[(S)-2-aminopropyl]-8-(2-cyclopropylethynyl)-4-thenylamino-3,6-dithia-2-azabicyclo[3.3.0]octa-1,4,7-triene] | 6.30 to 7.00 | 5.30 to 6.30
CCC#Cc1c(C[C@H](C)N)sc2c(NCc3cccs3)snc12 [Compound 16, 7-[(S)-2-aminopropyl]-8-(1-butynyl)-4-thenylamino-3,6-dithia-2-azabicyclo[3.3.0]octa-1,4,7-triene] | 5.30 to 6.30 | 5.30 to 6.30
CC#Cc1c(C[C@@H](N)C(F)F)sc2c(NCc3cccs3)snc12 [Compound 37, 7-[(R)-2-amino-3,3-difluoropropyl]-8-(1-propynyl)-4-thenylamino-3,6-dithia-2-azabicyclo[3.3.0]octa-1,4,7-triene] | 5.30 to 6.30 | 5.00 to 5.30
C[C@H](N)Cc1sc2c(NCc3cccs3)snc2c1C#Cc1ccccc1 [Compound 2, 7-[(S)-2-aminopropyl]-8-(2-phenylethynyl)-4-thenylamino-3,6-dithia-2-azabicyclo[3.3.0]octa-1,4,7-triene] | 5.00 to 5.30 | 5.30 to 6.30
CC#Cc1c(C(F)(F)[C@H](C)N)sc2c(NCc3cccs3)snc12 [Compound 28, 7-[(S)-2-amino-1,1-difluoropropyl]-8-(1-propynyl)-4-thenylamino-3,6-dithia-2-azabicyclo[3.3.0]octa-1,4,7-triene] | 5.30 to 6.30 | 5.30 to 6.30
COCC#Cc1c(C[C@H](C)N)sc2c(NCc3ccco3)snc12 [Compound 11, 7-[(S)-2-aminopropyl]-4-(furfurylamino)-8-(3-methoxy-1-propynyl)-3,6-dithia-2-azabicyclo[3.3.0]octa-1,4,7-triene] | 5.30 to 6.30 | 5.30 to 6.30
CC#Cc1c(C[C@H](C)N)sc2c(NCc3cccs3)snc12 [Compound 1, 7-[(S)-2-aminopropyl]-8-(1-propynyl)-4-thenylamino-3,6-dithia-2-azabicyclo[3.3.0]octa-1,4,7-triene] | 6.30 to 7.00 | 6.30 to 7.00
CCC#Cc1c(C[C@@H](N)[C@H](C)F)sc2c(NCc3cccs3)snc12 [Compound 20, 7-[(2R,3S)-2-amino-3-fluorobutyl]-8-(1-butynyl)-4-thenylamino-3,6-dithia-2-azabicyclo[3.3.0]octa-1,4,7-triene] | 6.30 to 7.00 | 6.30 to 7.00
C[C@H](N)Cc1sc2c(NCc3ccco3)snc2c1C#CC1CC1 [Compound 7, 7-[(S)-2-aminopropyl]-8-(2-cyclopropylethynyl)-4-(furfurylamino)-3,6-dithia-2-azabicyclo[3.3.0]octa-1,4,7-triene] | 6.30 to 7.00 | 5.30 to 6.30
CC(C)C#Cc1c(C[C@H](C)N)sc2c(NCc3ccco3)snc12 [Compound 5, 7-[(S)-2-aminopropyl]-4-(furfurylamino)-8-(3-methyl-1-butynyl)-3,6-dithia-2-azabicyclo[3.3.0]octa-1,4,7-triene] | 5.30 to 6.30 | 5.30 to 6.30

Other lines, results leading:

pIC50 [1] | pIC50 [2] | Compound
6.30 to 7.00 | 6.30 to 7.00 | CC#Cc1c(C[C@@H](N)CC2CC2)sc2c(NCc3ccco3)snc12 [Compound 30, 7-[(S)-2-amino-3-cyclopropylpropyl]-4-(furfurylamino)-8-(1-propynyl)-3,6-dithia-2-azabicyclo[3.3.0]octa-1,4,7-triene]
6.30 to 7.00 | 6.30 to 7.00 | CC#Cc1c(C[C@@H](N)[C@H](C)F)sc2c(NCc3cccs3)snc12 [Compound 23, 7-[(2R,3S)-2-amino-3-fluorobutyl]-8-(1-propynyl)-4-thenylamino-3,6-dithia-2-azabicyclo[3.3.0]octa-1,4,7-triene]
7.00 to 11.00 | 7.00 to 11.00 | CC#Cc1c(C[C@@H](N)CO)sc2c(NCc3ccco3)snc12 [Compound 9, (R)-2-amino-3-{4-(furfurylamino)-8-(1-propynyl)-3,6-dithia-2-azabicyclo[3.3.0]octa-1,4,7-trien-7-yl}-1-propanol]
4.40 to 5.00 | 5.00 to 5.30 | CC#Cc1c(C[C@@H](N)COC)sc2c(NCc3ccccc3)snc12 [Compound 24, 7-[(R)-2-amino-3-methoxypropyl]-4-benzylamino-8-(1-propynyl)-3,6-dithia-2-azabicyclo[3.3.0]octa-1,4,7-triene]
5.30 to 6.30 | 5.30 to 6.30 | CC#Cc1c(C[C@@H](N)CC2CC2)sc2c(NCc3cccs3)snc12 [Compound 29, 7-[(S)-2-amino-3-cyclopropylpropyl]-8-(1-propynyl)-4-thenylamino-3,6-dithia-2-azabicyclo[3.3.0]octa-1,4,7-triene]
6.30 to 7.00 | 5.30 to 6.30 | CC#Cc1c(C[C@@H](N)COC)sc2c(NCc3ccco3)snc12 [Compound 25, 7-[(R)-2-amino-3-methoxypropyl]-4-(furfurylamino)-8-(1-propynyl)-3,6-dithia-2-azabicyclo[3.3.0]octa-1,4,7-triene]
7.00 to 11.00 | 7.00 to 11.00 | CC#Cc1c(C[C@@H](N)[C@H](C)F)sc2c(NCc3ccco3)snc12 [Compound 22, 7-[(2R,3S)-2-amino-3-fluorobutyl]-4-(furfurylamino)-8-(1-propynyl)-3,6-dithia-2-azabicyclo[3.3.0]octa-1,4,7-triene]
7.00 to 11.00 | 6.30 to 7.00 | CC#Cc1c(C[C@@H](N)CO)sc2c(NCc3cccs3)snc12 [Compound 8, (R)-2-amino-3-{8-(1-propynyl)-4-thenylamino-3,6-dithia-2-azabicyclo[3.3.0]octa-1,4,7-trien-7-yl}-1-propanol]
5.30 to 6.30 | 5.30 to 6.30 | CC#Cc1c(C[C@@H](N)[C@H](C)F)sc2c(NCc3ccccc3)snc12 [Compound 21, 7-[(2R,3S)-2-amino-3-fluorobutyl]-4-benzylamino-8-(1-propynyl)-3,6-dithia-2-azabicyclo[3.3.0]octa-1,4,7-triene]
5.30 to 6.30 | 5.30 to 6.30 | CC#Cc1c(C[C@@H](N)C(F)F)sc2c(NCc3ccco3)snc12 [Compound 36, 7-[(R)-2-amino-3,3-difluoropropyl]-4-(furfurylamino)-8-(1-propynyl)-3,6-dithia-2-azabicyclo[3.3.0]octa-1,4,7-triene]
5.30 to 6.30 | 5.30 to 6.30 | CC#Cc1c(C[C@@H](N)COC)sc2c(NCc3cccs3)snc12 [Compound 26, 7-[(R)-2-amino-3-methoxypropyl]-8-(1-propynyl)-4-thenylamino-3,6-dithia-2-azabicyclo[3.3.0]octa-1,4,7-triene]
